# Source: patent US9145472B2, “Charge reversible polymers” (Wyoming Research Products Center, priority 2006, dated 2015)
# How the values were obtained:
# [1] = pH-dependent hydrolysis of model amides monitored by 1H-NMR; type: physicochemical
# Description: Model compound synthesis and hydrolytic kinetics measurement (Scheme 4—FIG. 4): Briefly, N,N-diethylamine (415 μL, 4 mmol) and 1,2-cis-cyclohexanedicarboxylic anhydride (617 mg, 4 mmol) were dissolved in 10 mL dichloride methane. The reaction was kept at room temperature for 2 h with stirring. The solvent was then removed by rotary evaporation to obtain the raw product. The raw product was purified by recrystallizing from benzene to get 2-[(diethylamino)carbonyl]cyclohexanecarboxylic acid. 1H NMR (400 MHz, CDCl3): δ (ppm): 3.60-3.22 (m), 2.77 (m), 2.51-2.45 (m), 1.87-1.66 (m), 1.58-1.46 (m), 1.49-1.39 (m), 1.28 (q), 1.17 (t). Similarly, 2-[(isopropylamino)carbonyl]cyclohexanecarboxylic acid was synthesized. 1H NMR (400 MHz, CDCl3): δ (ppm): 3.83 (q), 2.73 (q), 2.64 (q), 1.87 (m), 1.79 (m), 1.64 (m), 1.45 (m), 1.33 (m), 1.01 (d).
# The hydrolysis of the model compounds was monitored by 1H-NMR. Briefly, 2-[(isopropylamino)carbonyl]cyclohexanecarboxylic acid (10 mg) was dissolved in 2 mL D2O. Sodium carbonate was used to adjust the solution pH to 5.0, 6.0 or 7.4 at 37° C. At predesigned time intervals, 1HNMR spectra of the solution were measured on a Bruker Avance DRX-400 spectrometer. The hydrolysis was monitored by measuring the integrations of the peaks at 3.77-3.9 ppm (CH in the amide of propan-2-amine) and the 3.3-3.5 ppm (CH in the propan-2-amine).
# The hydrolysis of model amides of primary and secondary amines made from cis-1,2-cyclohexanedicarboxylic anhydride was tested at different pH values.
# nuclear DNA = conditions: cited from earlier work
SMILES,"hydrolysis of the amide ([1]; pH 5, 37° C.)","hydrolysis of the amide ([1]; pH 6, 37° C.)","extent of amide hydrolysis ([1]; pH 7.4, after 60 h) [%]",hydrolysis of the amide ([1]; pH 7.4),molecules that enter the cell that actually bind the nuclear DNA (nuclear DNA)
"CCN(CC)C(=O)C1CCCCC1C(=O)O (stereo not shown) [amide of the secondary amine, 2-[(diethylamino)carbonyl]cyclohexanecarboxylic acid]",almost instantly hydrolyzed,slightly slower,50,,
"CC(C)NC(=O)C1CCCCC1C(=O)O (stereo not shown) [amide of the primary amine, 2-[(isopropylamino)carbonyl]cyclohexanecarboxylic acid]",hydrolyzed more slowly,hydrolyzed more slowly,,did not hydrolyze,
N.N.[Cl][Pt][Cl] [cisplatin],,,,,less than 1%
